Assay results taken from patent US20210046195A1, “FORMULATION AND METHOD OF PREPARATION” (GE HEALTHCARE AS, priority 2018, published 2021).
Bridge positions count the residues as written; N and C are the ends. Cy5∗∗ = not defined here

Legend:
HCT-15 tumours = experiment: In vivo testing in HCT-15 tumour-bearing nude mice, fluorescence imaging through laparoscope; parameters: species or system BALB c/A nude (Bom) mice; details: 1 nmol per animal i.v.; excised tumour slice against normal colon
Description: 54 Female BALB c/A nude (Bom) mice were used in the study. The use of the animals was approved by the local ethics committee. BALB c/A nude is an inbred immunocompromised mouse strain with a high take rate for human tumours as compared to other nude mice strains. The mice were 4 weeks old upon arrival and with a body weight of approx. 20 grams at the start of the study. The animals were housed in individually ventilated cages (IVC, Scanbur BK) with HEPA filtered air. The animals had ad libitum access to “Rat and Mouse nr. 3 Breeding” diet (Scanbur BK) and tap water acidified by addition of HCl to a molar concentration of 1 mM (pH 3.0).
The colon cancer cell HCT-15 is derived from human colon carcinomas and is reported to express cMet according to Zeng et al [Clin. Exp. Metastasis, 21, 409-417. (2004)]. The cell line was proven to be tumorigenic when inoculated subcutaneously into nude mice [Flatmark et al, Eur. J. Cancer 40, 1593-1598 (2004)]. […]
Imaging was performed through a clinical laparoscope adapted to use a light source to excite the reporter and a filtering system to extract the fluorescence component. […]
Standard exposure time for colon imaging was 10 s. […] The images were visually scored using the standard scoring system employed for receiver operating characteristic analysis.

mouse cMet/Fc chimera = target: T1, mouse cMet/Fc chimera (Mus musculus, UniProt P16056); experiment: In vitro fluorescence polarisation assay, mouse cMet; format: binding; details: dye-labelled peptide 20 nM; mouse cMet/Fc chimera 0-150 nM (tested range)
T1 construct: Fc (immunoglobulin Fc fusion partner); purchased R&D Systems
T1 sequence (P16056 with tags, fused parts or gaps limits assumed): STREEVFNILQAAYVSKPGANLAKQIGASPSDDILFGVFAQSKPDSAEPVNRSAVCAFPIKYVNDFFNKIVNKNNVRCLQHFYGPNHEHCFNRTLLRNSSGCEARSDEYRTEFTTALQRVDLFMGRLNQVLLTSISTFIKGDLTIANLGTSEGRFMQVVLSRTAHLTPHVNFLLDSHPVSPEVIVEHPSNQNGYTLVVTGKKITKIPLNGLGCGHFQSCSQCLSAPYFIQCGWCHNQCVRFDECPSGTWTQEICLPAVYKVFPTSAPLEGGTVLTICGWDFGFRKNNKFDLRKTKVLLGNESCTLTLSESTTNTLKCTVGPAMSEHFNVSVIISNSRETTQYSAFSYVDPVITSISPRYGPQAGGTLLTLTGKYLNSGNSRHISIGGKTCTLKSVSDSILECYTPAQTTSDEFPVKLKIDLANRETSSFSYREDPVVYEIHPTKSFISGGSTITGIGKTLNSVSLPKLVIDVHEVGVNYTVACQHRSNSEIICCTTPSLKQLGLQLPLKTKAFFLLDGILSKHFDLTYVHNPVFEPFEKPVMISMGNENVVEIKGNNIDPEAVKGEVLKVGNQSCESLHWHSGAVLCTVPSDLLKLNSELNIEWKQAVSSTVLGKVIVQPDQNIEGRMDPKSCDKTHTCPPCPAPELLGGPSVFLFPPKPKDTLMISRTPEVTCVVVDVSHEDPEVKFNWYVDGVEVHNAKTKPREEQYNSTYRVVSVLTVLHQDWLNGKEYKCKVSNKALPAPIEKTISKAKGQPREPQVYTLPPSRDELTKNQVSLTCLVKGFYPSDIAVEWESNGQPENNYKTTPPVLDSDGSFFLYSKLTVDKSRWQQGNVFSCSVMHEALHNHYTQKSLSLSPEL
T1 sequence (P16056 25-306 limits assumed, change not shown): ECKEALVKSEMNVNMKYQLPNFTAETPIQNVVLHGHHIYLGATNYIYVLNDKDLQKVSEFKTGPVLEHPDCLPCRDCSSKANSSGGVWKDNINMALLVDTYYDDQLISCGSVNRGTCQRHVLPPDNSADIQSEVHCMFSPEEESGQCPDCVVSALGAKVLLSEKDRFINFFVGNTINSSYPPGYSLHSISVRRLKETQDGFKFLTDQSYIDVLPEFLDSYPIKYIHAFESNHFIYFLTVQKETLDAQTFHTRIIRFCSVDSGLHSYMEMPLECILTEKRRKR
Method: The principle of the fluorescence polarisation method can briefly be described as follows:
Monochromatic light passes through a […] polarizing filter and excites fluorescent molecules in the sample. Only those molecules that oriented properly in the vertically polarized plane adsorb light, become excited, and subsequently emit light. The emitted light is measured in both horizontal and vertical planes. The anisotropy value (A), is the ratio between the light intensities following the equation:
A=(Intensity with horizontal polarizer−Intensity with vertical polarizer)/(Intensity with horizontal polarizer+2* Intensity with vertical polarizer).
The fluorescence anisotropy measurements were performed in 384-well microplates in a volume of 10 μL in binding buffer (PBS, 0.01% Tween-20, pH 7.5) using a Tecan Safire fluorescence polarisation plate reader (Tecan, US) at ex646/em678 nm. The concentration of dye-labelled peptide was held constant (20 nM) and the concentrations of the human or mouse cMet/Fc chimera (R&D Systems) or Semaphorin 6A (R&D Systems) were varied from 0-150 nM. Binding mixtures were equilibrated in the microplate for 10 min at 30° C. The observed change in anisotropy was fit to the equation: […]

## Ac-TGECTCPYWEFRPCECGSYSGAGGGK(ϵ-Cy5**)-NH2 (Ac-TGECTCPYWEFRPCECGSYSGAGGGK(Cy5∗∗)-NH2; cysteine pairing not given here; reading uncertain; also: printed as Ac-TGECTCPYWEFRPCECGSYSGAGGGK(ϵ-Cy5**)-NH2) [Compound 7, negative control]
HCT-15 tumours
  tumour to normal ratio: did not discriminate between tumour and background
  visual identification of tumour against background: nothing was discernible against background

## Cys4-16, 6-14; Ac-Ala-Gly-Ser-Cys-Tyr-Cys-Ser-Gly-Pro-Pro-Arg-Phe-Glu-Cys-Trp-Cys-Tyr-Glu-Thr-Glu-Gly-Thr-Gly-Gly-Gly-Lys(Cy5)-NH2 (Ac-AGSCYCSGPPRFECWCYETEGTGGGK(Cy5)-NH2; disulfide 6-14, 4-16) [Compound 3]
Mouse cMet/Fc chimera
  binding to mouse cMet: no binding
